≈ marks a conversion by molar mass, not a printed value. Where two headings read alike, the source gives them in different places. *1 amine or outer side, *2 acyl side, *3 side chain or, on linkers, in order; H or OH if unused. Where a SMILES comes first, the peptide text is derived from it. [ ]: non-standard residue; d: D form. X2 = O=C([C@@H](Cc1cc(C(F)(F)F)c(O)c(C(F)(F)F)c1)N[*:1])[*:2]; Aminotetradecanoyl(3R) = CCCCCCCCCCC[C@H](CC(=O)[*:2])N[*:1]; dTyr(3-CF3) = N[C@H](Cc1ccc(O)c(C(F)(F)F)c1)C(=O)O; X1 = O=C(C[C@@H](CCCCCCCCCCC(F)(F)F)N[*:1])[*:2]
Experiments:
[1] = test system: Candida albicans; conditions: for MIC C. albicans: 24 h, pH 7
[2] = test system: Fusarium graminearum; conditions: broth microdilution, RPMI 1640 pH 7, 96-well plates, 28 °C for 48 h, no agitation, visual read-out, lowest concentration with complete inhibition of growth; DMSO max 2.5% v/v; triplicate
[3] = HPLC retention times compared to parent iturin A2, result in words
[4] = 19F NMR samples in D2O containing Saboraud Dextrose Broth (30 g/L), 5% d6-DMSO added to avoid precipitation
[5] = test system: Fusarium graminearum; test: microbe, parasite or virus in culture; conditions: 48 h, pH 7, read-out: MIC F. graminearum
[6] = test system: Candida albicans; test: microbe, parasite or virus in culture; conditions: 24 h, pH 7, read-out: MIC C. albicans

| Structure (SMILES) | change in bioactivity against C. albicans compared to iturin A2 [1] | MIC C. albicans [1] | MIC F. graminearum [2] | relative lipophilicity (hydrophobicity) by HPLC retention, compared to the natural lipopeptide [3] | relative lipophilicity (hydrophobicity) by HPLC retention, compared to the natural lipopeptide ([3]; listed as o‐CF3‐Tyr) | aqueous solubility [4] | MIC [5] | MIC [6] |
| --- | --- | --- | --- | --- | --- | --- | --- | --- |
| NC(=O)CC[C@@H]1NC(=O)[C@@H](CC(N)=O)NC(=O)[C@@H](Cc2ccc(O)cc2)NC(=O)[C@H](CC(N)=O)NC(=O)C[C@@H](CCCCCCCCCCC(F)(F)F)NC(=O)[C@H](CO)NC(=O)[C@@H](CC(N)=O)NC(=O)[C@@H]2CCCN2C1=O [Compound 9, ω‐CF3 iturin A2] (cyclo(N[dY][dN]QP[dN]S[X1])) | completely retains the bioactivity | 64 µM (≈ 70.2 µg/mL) | 64 µM (≈ 70.2 µg/mL) | – | – | – | – | – |
| CCCCCCCCCCC[C@@H]1CC(=O)N[C@@H](CC(N)=O)C(=O)N[C@H](Cc2ccc(O)cc2)C(=O)N[C@H](CC(N)=O)C(=O)N[C@@H](CCC(N)=O)C(=O)N2CCC[C@H]2C(=O)N[C@H](CC(N)=O)C(=O)N[C@@H](CO)C(=O)N1 [Synthetic iturin A2, iturin A2, reference compound] (cyclo(N[dY][dN]QP[dN]S[Aminotetradecanoyl(3R)])) | – | 64 µM (≈ 66.8 µg/mL) | 16 µM (≈ 16.7 µg/mL) | – | – | – | – | – |
| CCCCCCCCCCC[C@@H]1CC(=O)N[C@@H](CC(N)=O)C(=O)N[C@H](Cc2cc(C(F)(F)F)c(O)c(C(F)(F)F)c2)C(=O)N[C@H](CC(N)=O)C(=O)N[C@@H](CCC(N)=O)C(=O)N2CCC[C@H]2C(=O)N[C@H](CC(N)=O)C(=O)N[C@@H](CO)C(=O)N1 [Compound 11, di‐o‐CF3‐Tyr iturin A2] (cyclo(N[X2][dN]QP[dN]S[Aminotetradecanoyl(3R)])) | – | >128 µM | >128 µM | increased proportionally to the increase in fluorine content | – | – | – | – |
| CCCCCCCCCCC[C@@H]1CC(=O)N[C@@H](CC(N)=O)C(=O)N[C@H](Cc2ccc(O)c(C(F)(F)F)c2)C(=O)N[C@H](CC(N)=O)C(=O)N[C@@H](CCC(N)=O)C(=O)N2CCC[C@H]2C(=O)N[C@H](CC(N)=O)C(=O)N[C@@H](CO)C(=O)N1 [Compound 10, o‐CF3‐Tyr iturin A2] (cyclo(N[dTyr(3-CF3)][dN]QP[dN]S[Aminotetradecanoyl(3R)])) | – | 128 µM (≈ 142 µg/mL) | 128 µM (≈ 142 µg/mL) | pronounced increase in lipophilicity | increased proportionally to the increase in fluorine content | 50 µM (≈ 55.6 µg/mL) | – | – |
| C[C@@H]1[C@H](O)[C@@H](C)/C=C/C=C/C=C/C=C/C=C/C=C/C=C/[C@H](O[C@@H]2O[C@H](C)[C@@H](O)[C@H](N)[C@@H]2O)C[C@@H]2O[C@](O)(C[C@@H](O)C[C@@H](O)[C@H](O)CC[C@@H](O)C[C@@H](O)CC(=O)O[C@H]1C)C[C@H](O)[C@H]2C(=O)O [Amphotericin B] | – | – | – | – | – | – | 4 µM (≈ 3.7 µg/mL) | 2 µM (≈ 1.85 µg/mL) |

Source: article PMC12777510 (Chempluschem, 2025)
